Assay results taken from patent publication US20110293643A1, “COMPOUNDS AND METHODS FOR INHIBITING MMP2 AND MMP9” (priority 2009, published 2011).

How the values were obtained:
CD4+ T cells = assay: anti-CD3 induced T cell proliferation (3H thymidine incorporation), CD4+ T cells; format: cell-based, mouse
Method: (§1) The non-specific MMP inhibitor, 1,10-phenanthroline (Sigma, St. Louis, Mo.) was reconstituted to 1 M solution in dimethyl sulfoxide (DMSO) and diluted to 0.001-0.1 μM in complete RPMI (cRPMI), composed of RPMI, […] L-glutamine, 100 U penicillin streptomycin (Gibco, Carlsbad, Calif.), 10% FCS (Hyclone, Logan, Utah), and 5×10^−5 M 2-mercaptoethanol (Sigma, St. Louis, Mo.).
(§2) CD4^+ or CD8^+ T cells were isolated from wild-type Balb/c or C57BL/6 mice (1×10^6/ml) and incubated with the indicated concentrations of MMPIs or vehicle control for 6 hours. The treated cells were then washed three times in RPMI and cultured (1×10^5/well) in a 96 well plate in 200 μl of cRPMI in the presence of anti-CD3 antibody (0.5-1 μg/ml, BD Biosciences, San Jose, Calif.) at 37° C. for 72 hours and harvested as previously reported (Sumpter et al., 2008). This generalized protocol was used to measure T cell proliferation of CD4^+ and CD8^+ T cells following the various isolation methods and treatment conditions indicated. In MMP deficient parallel studies, MMP2−/−, MMP9−/−, MMP2/9−/− mice and littermate controls were cultured in the presence of anti-CD3 antibody for 72 h. […] The cells were washed three times in RPMI and added at varying ratios (treated: untreated) in co-culture with untreated CD4^+25− T cells in the presence of γ-irradiated antigen presenting cells in 200 μl of cRPMI at 37° C. for 72 hours and harvested as previously reported (Sumpter et al., 2008).

T cells [1] = assay: cell viability after 1,10-phenanthroline treatment; format: cell-based, mouse; conditions: high phenanthroline concentrations
Wistar-Kyoto rat = conditions: rat ischemia reperfusion injury, Iwata et al. 2008; cited from earlier work
rat = rat lung transplantation; cited from earlier work
MMP9 [2] = target: MMP9 (Homo sapiens, UniProt P14780); conditions: Brown et al., 2000, Toth et al., Forbes et al., 2009; cited from earlier work
MMP9 [3] = target: T1, MMP9 (Mus musculus, UniProt P41245); assay: MMP9 protein expression by gelatin zymography in CD8+ T cells; format: cell-based; conditions: 10 μM
T1 construct: Cell lysates and conditioned media supernatant were collected, concentrated to 4× and centrifuged; endogenous in cells; host or cells: primary splenic CD8+ T cells from wild-type C57BL/6 mice
Method: Cell lysates and conditioned media supernatant were collected, concentrated to 4× and centrifuged to remove any cell debris, and stored at −80° C. prior to assay. Samples were then subjected to zymography as reported previously (Yoshida et al., 2007).

CD25 = CD25 transcript expression by quantitative RT PCR in CD4+ T cells; format: cell-based, mouse; conditions: 5-20 μM, anti-CD3, vs vehicle (FIG. 5D)
Method: (§3) Purified CD4^+ T cells were incubated with the indicated concentrations of SB3-CT for 6 hours and then washed three times with RPMI 1640. Drug or vehicle-treated T cells were cultured (1×10^6/ml) with anti-CD3 antibody (0.5 μg/ml) in cRPMI for 1-12 hours. Cells were collected and total RNA was isolated using an RNeasy RNA extraction kit (Qiagen, Inc., Valencia, Calif.) and mRNA expression levels were detected with PerfeCTa™ SYBR Green FastMix, Low ROX (Quanta Biosciences, Gaithersburg, Md.) on a Applied Biosystems 7500 according to the manufacturer's instructions. Each sample was normalized to murine β-actin. Primer sequences were designed and optimized using routine methodologies to specifically amplify each cytokine based on publicly available sequences.

CD8+ T cells [4] = assay: anti-CD3 induced intracellular calcium flux (Fluo-4 NW); format: cell-based, mouse; conditions: 10 μM
Method: Calcium flux was measured in CD4^+ and CD8^+ wild-type or MMP9 deficient or SB-3CT-treated (10 μM) T cells using the Fluo-4 NW Calcium Assay kit (Molecular Probes, Carlsbad, Calif.) in accord with the manufacturer's protocol. Cells were then stimulated with anti-CD3 antibody (10 μg/ml) and read in real time on a Molecular Devices FlexStation I (Sunnyvale, Calif.) for 300 seconds.

CD4+25− T cells = assay: T cell suppressor assay with SB-3CT-treated CD4+25− T cells; format: cell-based, mouse
Method: as §2

[5] = test system: OT-I transgenic CD8+ T cells; assay: antigen-specific proliferation of OT-I transgenic CD8+ T cells with OVA-pulsed APCs; format: cell-based, mouse; conditions: 5-20 μM, SIINFEKL-pulsed APCs, 72 hours (FIG. 8A)
Foxp3 = Foxp3 transcript expression by quantitative RT PCR in CD4+ T cells; format: cell-based, mouse; conditions: 10 μM, anti-CD3, CD4+ T cells (FIG. 7B)
Method: as §3

T cells [6] = assay: cell viability by trypan blue exclusion and annexin V staining after SB-3CT; format: cell-based, mouse; conditions: following treatment with SB-3CT
Description: The data described in the Examples herein thus far raise the possibility that SB-3CT-induced cytotoxicity or anergy could account for the observed effects on proliferation.

IL-2 [7] = assay: IL-2 protein expression by cytometric bead array; format: cell-based, mouse; conditions: 10 μM, various time points, anti-CD3, CD4+ T cells (FIG. 6C, D)
Method: Purified MMP9 deficient or SB-3CT-treated (10 μM) CD4^+ T cells were incubated for 6 hours and then washed three times with RPMI 1640. MMP9 deficient or SB-3CT-treated T cells were cultured (1×10^6/ml) with anti-CD3 antibody (0.5 μg/ml) in cRPMI for 1-12 hours. Supernatants were collected and cytokine protein levels were measured using the Mouse Inflammatory Cytokine Bead Array Kit (BD Biosciences, San Jose, Calif.) according to the manufacturer's instructions.

NFATc1 = NFATc1 transcript expression by quantitative RT PCR in CD4+ T cells; format: cell-based, mouse; conditions: 5-20 μM, anti-CD3, vs vehicle (FIG. 5C)
Method: as §3

CC10-OVA mice = assay: antigen-specific CD8+ T cell mediated lung injury, adoptive transfer of treated OT-I cells into CC10-OVA mice; format: in vivo, mouse
Method: Lymph node and spleen were isolated from Thy1.1^+ OT-I transgenic mice and splenic CD8^+ T cells were isolated as stated above. […] 5×10^7 γ-irradiated wild-type splenocytes were cultured in 30 ml of 10% DMEM supplemented with 0.7 μg/ml of OVA peptide ([…]) for 5 min, followed by the addition of OT-1 Thy1.1^+ CD8^+ T cells (5×10^6), anti-CD28 antibody (2 μg/ml), IL-2 (132.02 U/ml) and IL-12 (10 ng/ml). On day 3, the cells were split and supplemented with more IL-2 (25 U/ml) in a final volume of 30 ml. On day 5, cells were harvested and prepared for adoptive transfer into CC10-OVA mice. Cells were resuspended in PBS, and 7.5×10^5 cells were intratracheally instilled into the lungs of CC10-OVA mice.
The lung was finely minced on ice, followed by a 60-90 minute digestion at 37° C. with collagenase/dispase (0.2 mg/ml of each) in RPMI medium with 5% fetal calf serum (FCS), in the presence of 25 μg/ml DNase. Cells were passed through a 70 μm cell strainer, washed, and lung lymphocytes were isolated by density centrifugation. Cells were resuspended in FACS buffer (10% BSA in PBS) and analyzed immediately on a FACScan flow cytometer (Beckton Dickinson). FCS Express (DeNovo Software, Los Angeles, Calif.) was used for further analysis.
BAL was collected from the lungs of wild-types and CC10 mice following adoptive transfer of vehicle and SB-3CT-treated OT-1 Tg T cells, by washing the mouse lung with 1.0 ml of sterile 1×PBS. Collected fluid was then centrifuged for 10 minutes at 2000 rpm. Cell pellets were resuspended in 200 μl of sterile 1×PBS. Cells were then stained with anti-GR1 antibody and analyzed immediately on a FACScan flow cytometer (Beckton Dickinson). FCS Express (DeNovo Software, Los Angeles, Calif.) was used for further analysis.
Lungs were perfused, inflated and fixed with neutral buffered formalin. The sections were then embedded in paraffin, sectioned, and stained with hematoxylin and eosin. Images were acquired at 20× using an Olympus microscope and DP12 digital camera (Olympus, Center Valley, Pa.).

CD4+25+ T cells (Tregs) = assay: T cell suppressor assay with SB-3CT-treated CD4+25+ T cells (Tregs); format: cell-based, mouse; conditions: 10 μM treated CD4+25+ T cells, varying ratios (FIG. 7E)
Method: as §2

IL-2 [8] = assay: IL-2 transcript expression by quantitative RT PCR; format: cell-based, mouse; conditions: 10 μM, various time points, anti-CD3, CD4+ T cells (FIG. 6C, D)
Method: as §3

CD8+ T cells [9] = assay: anti-CD3 induced T cell proliferation (3H thymidine incorporation), CD8+ T cells; format: cell-based, mouse
Method: as §1
CD4^+ or CD8^+ T cells were isolated from wild-type Balb/c or C57BL/6 mice (1×10^6/ml) and incubated with the indicated concentrations of MMPIs or vehicle control for 6 hours. The treated cells were then washed three times in RPMI and cultured (1×10^5/well) in a 96 well plate in 200 μl of cRPMI in the presence of anti-CD3 antibody (0.5-1 μg/ml, BD Biosciences, San Jose, Calif.) at 37° C. for 72 hours and harvested as previously reported (Sumpter et al., 2008). This generalized protocol was used to measure T cell proliferation of CD4^+ and CD8^+ T cells following the various isolation methods and treatment conditions indicated. In MMP deficient parallel studies, MMP2−/−, MMP9−/−, MMP2/9−/− mice and littermate controls were cultured in the presence of anti-CD3 antibody for 72 h. […]

T1 sequence (P41245 108-730): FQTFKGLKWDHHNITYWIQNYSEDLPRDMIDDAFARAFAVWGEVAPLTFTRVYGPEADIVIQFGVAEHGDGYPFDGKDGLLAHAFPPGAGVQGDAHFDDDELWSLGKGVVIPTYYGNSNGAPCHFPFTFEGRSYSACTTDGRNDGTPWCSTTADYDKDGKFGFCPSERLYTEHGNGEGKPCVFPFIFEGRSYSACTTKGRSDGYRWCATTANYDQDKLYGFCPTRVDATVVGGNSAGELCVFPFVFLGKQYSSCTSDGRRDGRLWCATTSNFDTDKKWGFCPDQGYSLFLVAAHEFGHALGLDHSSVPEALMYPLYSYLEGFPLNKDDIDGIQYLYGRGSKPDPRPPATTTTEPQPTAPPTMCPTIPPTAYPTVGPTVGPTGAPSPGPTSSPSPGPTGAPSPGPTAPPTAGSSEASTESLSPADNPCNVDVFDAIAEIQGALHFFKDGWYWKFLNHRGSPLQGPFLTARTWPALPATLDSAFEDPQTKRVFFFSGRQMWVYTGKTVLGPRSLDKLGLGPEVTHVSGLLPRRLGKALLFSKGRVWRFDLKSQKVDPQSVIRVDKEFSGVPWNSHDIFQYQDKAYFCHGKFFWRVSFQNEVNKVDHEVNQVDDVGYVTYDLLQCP
Sequence of MMP9 (Homo sapiens, UniProt P14780) (P14780 94-707): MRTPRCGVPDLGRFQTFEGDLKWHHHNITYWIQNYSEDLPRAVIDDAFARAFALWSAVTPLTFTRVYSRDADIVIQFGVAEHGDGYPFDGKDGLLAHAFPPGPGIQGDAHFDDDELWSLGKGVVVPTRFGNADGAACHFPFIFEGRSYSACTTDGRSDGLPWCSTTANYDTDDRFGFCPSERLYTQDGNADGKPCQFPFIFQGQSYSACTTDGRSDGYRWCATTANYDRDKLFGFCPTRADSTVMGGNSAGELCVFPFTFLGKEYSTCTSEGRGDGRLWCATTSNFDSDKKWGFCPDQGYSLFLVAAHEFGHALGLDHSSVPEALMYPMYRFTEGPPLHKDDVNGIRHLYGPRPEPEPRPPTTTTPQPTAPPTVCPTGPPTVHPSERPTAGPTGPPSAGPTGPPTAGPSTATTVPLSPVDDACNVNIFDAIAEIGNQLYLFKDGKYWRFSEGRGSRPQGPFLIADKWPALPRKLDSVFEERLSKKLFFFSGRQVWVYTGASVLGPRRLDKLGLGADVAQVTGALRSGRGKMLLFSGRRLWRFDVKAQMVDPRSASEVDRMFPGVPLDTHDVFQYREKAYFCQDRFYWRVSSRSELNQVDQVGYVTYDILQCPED

c1cnc2c(c1)ccc1cccnc12 [1,10-phenanthroline]
T cell proliferation (CD4+ T cells; 0.001 μM, 6 hours, then soluble anti-CD3 antibody 72 hours (FIG. 2A)): proliferative response similar to untreated anti-CD3 antibody stimulated cells | T cell proliferation (CD4+ T cells; higher doses (up to 0.1 μM), 6 hours, then anti-CD3 72 hours, p<0.001 (FIG. 2A)): significantly abrogated the proliferative response | cell viability after treatment (T cells [1]): cells were viable after treatment

NC(=O)C1=C(O)C[C@@H]2C[C@@H]3Cc4cccc(O)c4C(=O)C3=C(O)[C@]2(O)C1=O [COL-3]
antigenic collagen (V) in bronchoalveolar lavage (Wistar-Kyoto rat): lower levels | inflammation factors (Wistar-Kyoto rat): reduced inflammation factors | T cell proliferation (CD4+ T cells; 1 μM, 6 hours, then anti-CD3 72 hours (FIG. 2B)): proliferative response similar to the untreated control | T cell proliferation (CD4+ T cells; higher doses (up to 100 μM), p<0.001 (FIG. 2B)): dose-dependent decrease in T cell proliferation | intragraft B cell hyperplasia (rat): induce intragraft B cell hyperplasia

O=S(=O)(CC1CS1)c1ccc(Oc2ccccc2)cc1 (stereo not drawn) [SB-3CT]
mode of MMP9 inhibition (MMP9 [2]): tight-binding inhibition | MMP9 protein expression (MMP9 [3]): decreased | CD25 transcript expression (CD25): abrogated NFATc1 and CD25 transcript expression in a dose-dependent manner | calcium influx in calcium containing media (CD8+ T cells [4]; calcium containing media, anti-CD3 (FIG. 4D)): dramatic influx of exogenous calcium | intracellular calcium flux (release from the ER) (CD8+ T cells [4]; calcium-free media, anti-CD3 10 μg/ml (FIG. 4C)): increased intracellular calcium flux | inhibition at 10 µM (CD4+25− T cells; Mus musculus, T-cell, 10 μM treated CD4+25− cells, each ratio with untreated CD4+25− T cells, 72 hours (FIG. 7D), read-out: inhibition of T cell proliferation in co-culture): 50% | induction of regulatory T cell function (CD4+25− T cells; increasing ratio of SB-3CT-treated cells (FIG. 7D)): does not induce regulatory T cell function | antigen-specific proliferation [5]: completely abrogated the proliferative response | T cell proliferation (CD4+ T cells; 5-25 μM, anti-CD3 72 h, vs vehicle-treated cells (FIG. 2C)): dose-dependent decrease in proliferation | T cell proliferation with exogenous IL-2 (CD4+ T cells; anti-CD3 plus exogenous murine IL-2, 72 h (FIG. 2E)): partial recovery of the proliferative response | foxp3 transcripts (Foxp3): increased | cell viability (T cells [6]): greater than 90% | IL-2 protein expression (IL-2 [7]): down regulated | NFATc1 transcript expression (NFATc1): abrogated NFATc1 and CD25 transcript expression in a dose-dependent manner | lung histology, mononuclear cellular infiltration (CC10-OVA mice; H&E lung sections after adoptive transfer of treated OT-1 cells): mononuclear cellular infiltration was minimal | quantity of total BAL cells (CC10-OVA mice; seven days after adoptive transfer of 10 μM treated OT-I cells, vs vehicle (FIG. 8B)): no differences | quantity of neutrophils (Gr-1+) in BAL (CC10-OVA mice; seven days after adoptive transfer, vs vehicle, p<0.01 (FIG. 8C)): decreased significantly | CD8+ Thy1.1+ (donor) cells in lung parenchyma (CC10-OVA mice; vs vehicle, p<0.01 (FIG. 9A)): significantly fewer | CD25 expression on CD8+ Thy1.1+ T cells in lung (CC10-OVA mice; vs vehicle, p<0.01 (FIG. 9B)): fewer of these cells expressed the activation marker CD25 | suppressive function of treated Tregs (CD4+25+ T cells (Tregs)): retained their suppressive function | IL-2 transcript expression (IL-2 [8]): increased over time | T cell proliferation (CD8+ T cells [9]; 5-25 μM, anti-CD3 72 h, vs vehicle-treated cells (FIG. 2D)): dose-dependent decrease in proliferation | T cell proliferation with exogenous IL-2 (CD8+ T cells [9]; anti-CD3 plus exogenous murine IL-2, 72 h (FIG. 2F)): partial recovery of the proliferative response

TIMP-1: tissue-inhibitor of metalloproteinases
delayed type hypersensitivity responses to donor antigens and type V collagen (rat): differential effects | rejection pathology (rat): neither affected the onset of rejection pathology
